Results on seven compounds are retold here after ChEMBL document CHEMBL3352320, “Novel benzothiazinones (BTOs) as allosteric modulator or substrate competitive inhibitor of glycogen synthase kinase 3β (GSK-3β) with cellular activity of promoting glucose uptake” (Bioorg Med Chem Lett, 2014).

Active and inactive are the calls of the source. No cut-off for these calls is given here. Non-standard residues stand in square brackets, D forms with d. Residues, ends and D or L forms follow the SMILES beside them. *: point of attachment. Myristoyl = CCCCCCCCCCCCCC(=O)*; pS = N[C@@H](COP(=O)(O)O)C(=O)O

Assay [1] relates to HepG2. The assay can be described thus: Increase in glucose incorporation in human HepG2 cells at 2 uM after 12 hrs by glucose assay. The assay is classed as functional, cell-based.
Assay [2] deals with 3T3-L1. The assay can be described thus: Increase in glucose incorporation in mouse 3T3L1 cells at 2 uM after 12 hrs by glucose assay. The assay is classed as functional, cell-based.
Assay [3] deals with T1, Glycogen synthase kinase-3 beta (Homo sapiens, UniProt P49841). As to conditions: HepG2, 2 uM.
Target sequence in this assay (P49841 whole entry, looked up): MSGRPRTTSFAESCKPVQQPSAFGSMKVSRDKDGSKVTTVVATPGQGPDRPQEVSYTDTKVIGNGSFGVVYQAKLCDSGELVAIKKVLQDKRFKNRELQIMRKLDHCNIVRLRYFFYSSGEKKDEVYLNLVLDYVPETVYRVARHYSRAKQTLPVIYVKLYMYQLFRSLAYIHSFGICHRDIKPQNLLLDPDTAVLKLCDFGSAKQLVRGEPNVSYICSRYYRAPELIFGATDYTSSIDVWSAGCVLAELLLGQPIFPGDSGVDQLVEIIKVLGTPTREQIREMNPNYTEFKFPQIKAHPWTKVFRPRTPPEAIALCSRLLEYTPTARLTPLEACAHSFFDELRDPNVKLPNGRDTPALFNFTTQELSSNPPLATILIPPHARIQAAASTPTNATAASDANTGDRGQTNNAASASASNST
Description: Inhibition of GSK3beta in human HepG2 cells assessed as decrease in ratio of phosphorylated GS/GS at 2 uM after 12 hrs by Western blot analysis
The target of assay [4] is Platelet-derived growth factor receptor alpha (Homo sapiens) (UniProt P16234). The assay can be described thus: Inhibition of PDGFRalpha (unknown origin) at 100 uM.
Chain of Platelet-derived growth factor receptor alpha (Homo sapiens) (P16234 whole entry): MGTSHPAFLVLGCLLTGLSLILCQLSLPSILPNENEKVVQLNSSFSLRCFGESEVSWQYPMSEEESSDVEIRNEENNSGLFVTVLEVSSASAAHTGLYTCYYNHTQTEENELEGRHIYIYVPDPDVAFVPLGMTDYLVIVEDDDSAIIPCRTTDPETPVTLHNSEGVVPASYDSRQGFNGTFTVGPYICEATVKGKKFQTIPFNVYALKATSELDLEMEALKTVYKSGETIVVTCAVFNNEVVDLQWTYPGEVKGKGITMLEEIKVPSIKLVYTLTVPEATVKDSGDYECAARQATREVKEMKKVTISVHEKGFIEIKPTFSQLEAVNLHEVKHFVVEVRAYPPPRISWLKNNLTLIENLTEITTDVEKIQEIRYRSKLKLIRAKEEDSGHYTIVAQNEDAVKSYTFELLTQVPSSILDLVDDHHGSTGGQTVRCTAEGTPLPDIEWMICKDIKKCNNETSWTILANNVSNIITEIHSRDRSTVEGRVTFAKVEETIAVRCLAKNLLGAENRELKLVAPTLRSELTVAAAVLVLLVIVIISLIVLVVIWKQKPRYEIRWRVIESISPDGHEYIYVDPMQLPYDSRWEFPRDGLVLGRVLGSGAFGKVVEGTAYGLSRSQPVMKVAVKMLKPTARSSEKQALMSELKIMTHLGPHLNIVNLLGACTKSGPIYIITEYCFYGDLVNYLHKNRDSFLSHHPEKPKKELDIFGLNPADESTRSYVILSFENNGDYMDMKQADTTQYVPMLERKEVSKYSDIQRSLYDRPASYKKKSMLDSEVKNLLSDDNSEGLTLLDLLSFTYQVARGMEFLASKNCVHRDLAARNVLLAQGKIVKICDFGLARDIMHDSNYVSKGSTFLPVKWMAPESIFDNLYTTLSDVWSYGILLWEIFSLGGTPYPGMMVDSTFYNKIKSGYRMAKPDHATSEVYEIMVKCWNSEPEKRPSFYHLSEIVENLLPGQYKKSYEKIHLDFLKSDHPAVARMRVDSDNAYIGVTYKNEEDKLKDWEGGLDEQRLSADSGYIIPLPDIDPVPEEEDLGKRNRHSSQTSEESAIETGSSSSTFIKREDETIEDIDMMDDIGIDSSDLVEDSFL
Assay [5] addresses Platelet-derived growth factor receptor beta (Homo sapiens) (UniProt P09619). The assay can be described thus: Inhibition of PDGFRbeta (unknown origin) at 100 uM.
The target of assay [6] is T1, Glycogen synthase kinase-3 beta. The assay can be described thus: Inhibition of GSK3beta (unknown origin) using peptide substrate GS2 assessed as ATP remaining by Kinase-Glo luminescent kinase assay. (Kinase-Glo measures the ATP left after a reaction by luminescence.)
Target sequence in this assay (P49841 whole entry): as the sequence (P49841 whole entry, looked up) above
Assay [7] has the same target. The assay can be described thus: Inhibition of GSK3beta in human […] cells assessed as decrease in ratio of phosphorylated GS/GS at 10 uM after 12 hrs by Western blot analysis. The assay is classed as cell-based.
Target sequence in this assay (P49841 whole entry, looked up): as above
Assay [8] has as its system HepG2. The assay can be described thus: Increase in glucose incorporation in human HepG2 cells at 10 uM after 12 hrs by glucose assay. The assay is classed as functional, cell-based.
In assay [9] the test system is 3T3-L1. As to the kind of experiment: Increase in glucose incorporation in mouse 3T3L1 cells at 10 uM after 12 hrs by glucose assay. The assay is classed as functional, cell-based.
Assay [10] has as its target Receptor tyrosine-protein kinase erbB-4 (Homo sapiens) (UniProt Q15303). The assay can be described thus: Inhibition of ErbB4 (unknown origin) at 100 uM.
Assay [11] concerns HepG2. As to the kind of experiment: Increase in glucose incorporation in human HepG2 cells at 34 uM after 12 hrs by glucose assay. It counts as functional, cell-based.
In assay [12] the test system is 3T3-L1. As to the kind of experiment: Increase in glucose incorporation in mouse 3T3L1 cells at 34 uM after 12 hrs by glucose assay. The assay is classed as functional, cell-based.
In assay [13] the target is T1, Glycogen synthase kinase-3 beta. As to conditions: HepG2, 34 uM.
Target sequence in this assay (P49841 whole entry, looked up): as above
Description: Inhibition of GSK3beta in human HepG2 cells assessed as decrease in ratio of phosphorylated GS/GS at 34 uM after 12 hrs by Western blot analysis
For assay [14] the target is unchanged. As to the kind of experiment: Competitive inhibition of GSK3beta (unknown origin) using peptide substrate GS2 assessed as ATP remaining by Kinase-Glo luminescent kinase assay.
Target sequence in this assay (P49841 whole entry, looked up): as above
Assay [15] deals with Cyclin-dependent kinase 1 (Homo sapiens) (UniProt P06493). As to the kind of experiment: Inhibition of CDK1 (unknown origin) at 100 uM.
Chain of Cyclin-dependent kinase 1 (Homo sapiens) (P06493 whole entry, looked up): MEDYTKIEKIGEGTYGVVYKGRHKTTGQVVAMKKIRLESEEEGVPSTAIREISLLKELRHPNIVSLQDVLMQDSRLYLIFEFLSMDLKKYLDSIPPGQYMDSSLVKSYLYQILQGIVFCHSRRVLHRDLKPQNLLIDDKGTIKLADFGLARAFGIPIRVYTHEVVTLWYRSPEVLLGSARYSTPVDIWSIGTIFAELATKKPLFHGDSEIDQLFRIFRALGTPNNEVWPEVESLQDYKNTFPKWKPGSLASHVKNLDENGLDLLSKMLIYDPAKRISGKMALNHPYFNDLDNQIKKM
In assay [16] the target is Casein kinase II (Homo sapiens) (UniProt P67870+P68400+P19784). As to the kind of experiment: Inhibition of CK2 (unknown origin) at 100 uM. The assay is classed as protein-complex assay.
Assay [17] has as its target Protein kinase C alpha type (Homo sapiens) (UniProt P17252). As to the kind of experiment: Inhibition of PKCalpha (unknown origin) at 100 uM.
The target of assay [18] is Vascular endothelial growth factor receptor 2 (Homo sapiens) (UniProt P35968). The assay can be described thus: Inhibition of KDR (unknown origin) at 100 uM.
Assay [19] concerns the target Fibroblast growth factor receptor 1 (Homo sapiens) (UniProt P11362). As to the kind of experiment: Inhibition of FGFR1 (unknown origin) at 100 uM.
For assay [20], the target named is Proto-oncogene tyrosine-protein kinase Src (Homo sapiens) (UniProt P12931). The note with it: at 100 µM.
Chain of Proto-oncogene tyrosine-protein kinase Src (Homo sapiens) (P12931 2-536 limits assumed): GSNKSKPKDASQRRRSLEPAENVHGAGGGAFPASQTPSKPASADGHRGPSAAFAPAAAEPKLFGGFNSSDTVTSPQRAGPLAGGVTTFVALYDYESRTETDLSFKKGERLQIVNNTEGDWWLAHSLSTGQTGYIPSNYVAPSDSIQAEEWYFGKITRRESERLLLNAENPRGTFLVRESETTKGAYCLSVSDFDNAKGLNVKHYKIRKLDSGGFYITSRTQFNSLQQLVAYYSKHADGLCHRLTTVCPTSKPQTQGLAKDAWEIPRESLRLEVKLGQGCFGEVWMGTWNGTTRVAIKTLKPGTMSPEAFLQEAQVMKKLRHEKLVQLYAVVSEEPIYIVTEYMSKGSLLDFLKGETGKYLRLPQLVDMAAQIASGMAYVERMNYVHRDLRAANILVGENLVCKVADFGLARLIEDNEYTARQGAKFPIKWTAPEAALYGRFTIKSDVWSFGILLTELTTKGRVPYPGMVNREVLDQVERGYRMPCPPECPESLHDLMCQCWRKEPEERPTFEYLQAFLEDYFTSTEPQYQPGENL
Description: Inhibition of c-Src (unknown origin) at 100 uM

Chain of Platelet-derived growth factor receptor beta (Homo sapiens) (P09619 whole entry): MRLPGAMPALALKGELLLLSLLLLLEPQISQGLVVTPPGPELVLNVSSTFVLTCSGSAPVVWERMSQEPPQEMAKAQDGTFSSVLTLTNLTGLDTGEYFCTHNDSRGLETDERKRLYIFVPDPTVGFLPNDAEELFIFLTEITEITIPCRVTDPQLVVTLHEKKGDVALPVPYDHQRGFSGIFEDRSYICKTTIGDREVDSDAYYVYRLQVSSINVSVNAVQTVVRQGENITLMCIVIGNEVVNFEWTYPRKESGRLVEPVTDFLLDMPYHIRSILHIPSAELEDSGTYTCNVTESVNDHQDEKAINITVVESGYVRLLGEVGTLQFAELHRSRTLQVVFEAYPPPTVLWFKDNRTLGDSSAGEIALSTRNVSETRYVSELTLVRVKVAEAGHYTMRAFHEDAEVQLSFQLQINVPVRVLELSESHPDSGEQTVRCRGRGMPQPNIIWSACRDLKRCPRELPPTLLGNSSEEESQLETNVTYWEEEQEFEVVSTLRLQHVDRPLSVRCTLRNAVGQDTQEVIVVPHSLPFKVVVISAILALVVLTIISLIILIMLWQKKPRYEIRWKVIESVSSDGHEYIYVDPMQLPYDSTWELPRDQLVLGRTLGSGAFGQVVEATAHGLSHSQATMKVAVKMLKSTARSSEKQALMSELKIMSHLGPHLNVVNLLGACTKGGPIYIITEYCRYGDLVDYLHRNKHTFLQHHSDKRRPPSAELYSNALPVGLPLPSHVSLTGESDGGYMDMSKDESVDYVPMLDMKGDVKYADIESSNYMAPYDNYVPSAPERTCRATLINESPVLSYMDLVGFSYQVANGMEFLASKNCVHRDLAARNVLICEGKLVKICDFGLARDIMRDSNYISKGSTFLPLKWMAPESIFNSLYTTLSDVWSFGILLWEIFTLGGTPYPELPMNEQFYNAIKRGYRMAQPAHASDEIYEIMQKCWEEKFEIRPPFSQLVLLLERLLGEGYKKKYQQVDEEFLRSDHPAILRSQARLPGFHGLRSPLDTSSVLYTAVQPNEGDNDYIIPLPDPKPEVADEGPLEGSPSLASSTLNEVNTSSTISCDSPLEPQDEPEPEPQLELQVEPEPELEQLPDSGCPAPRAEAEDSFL
Chain of Receptor tyrosine-protein kinase erbB-4 (Homo sapiens) (Q15303 whole entry): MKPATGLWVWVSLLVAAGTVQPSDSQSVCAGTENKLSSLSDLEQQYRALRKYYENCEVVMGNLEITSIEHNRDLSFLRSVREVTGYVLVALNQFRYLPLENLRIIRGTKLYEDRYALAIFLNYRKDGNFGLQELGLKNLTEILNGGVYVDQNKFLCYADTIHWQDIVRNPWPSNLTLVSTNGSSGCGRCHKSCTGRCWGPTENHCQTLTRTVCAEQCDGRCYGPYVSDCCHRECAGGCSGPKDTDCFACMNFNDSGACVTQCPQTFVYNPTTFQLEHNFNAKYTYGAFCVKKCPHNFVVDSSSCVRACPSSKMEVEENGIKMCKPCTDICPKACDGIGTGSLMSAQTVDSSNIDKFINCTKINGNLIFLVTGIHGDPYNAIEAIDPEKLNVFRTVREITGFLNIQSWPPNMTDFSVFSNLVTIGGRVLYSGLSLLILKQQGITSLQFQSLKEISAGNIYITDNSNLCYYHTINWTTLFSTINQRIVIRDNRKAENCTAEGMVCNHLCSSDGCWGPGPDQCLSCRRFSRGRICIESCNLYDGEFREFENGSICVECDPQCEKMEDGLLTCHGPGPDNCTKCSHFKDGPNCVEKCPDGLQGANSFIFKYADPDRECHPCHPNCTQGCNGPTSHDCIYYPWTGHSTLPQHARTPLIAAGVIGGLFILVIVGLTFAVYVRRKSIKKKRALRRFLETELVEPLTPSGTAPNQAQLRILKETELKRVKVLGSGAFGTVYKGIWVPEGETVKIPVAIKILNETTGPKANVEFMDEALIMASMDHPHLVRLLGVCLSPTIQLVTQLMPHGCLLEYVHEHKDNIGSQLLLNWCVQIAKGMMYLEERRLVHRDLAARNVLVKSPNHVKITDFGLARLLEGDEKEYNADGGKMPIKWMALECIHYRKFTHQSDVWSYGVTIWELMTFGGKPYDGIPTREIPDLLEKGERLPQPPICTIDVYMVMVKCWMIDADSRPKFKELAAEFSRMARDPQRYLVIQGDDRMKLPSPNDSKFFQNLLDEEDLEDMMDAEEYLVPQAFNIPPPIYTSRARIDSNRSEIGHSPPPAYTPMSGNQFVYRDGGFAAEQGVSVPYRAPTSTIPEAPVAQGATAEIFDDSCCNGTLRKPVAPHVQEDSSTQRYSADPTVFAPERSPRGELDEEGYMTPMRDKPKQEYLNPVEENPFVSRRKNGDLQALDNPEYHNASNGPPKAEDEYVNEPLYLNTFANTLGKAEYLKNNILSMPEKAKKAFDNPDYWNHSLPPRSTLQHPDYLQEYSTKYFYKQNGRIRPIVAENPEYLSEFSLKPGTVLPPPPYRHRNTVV

The inhibition is the relative decrease from the control value, in per cent. `Cn1sc(=O)n(Cc2ccccc2)c1=O`: the outcome in assay [1] and in [2] was Active. Also, the inhibition entry in assay [3] is “Active”.
Take `CCN(CC)CCNC(=O)c1c(C)[nH]c(/C=C2\C(=O)Nc3ccc(F)cc32)c1C`: the inhibition in assay [4] was 71.4%; in assay [5], 70.6%.
What is called IC50 is the concentration at which inhibition is half-maximal. As to `CCCCCCCCCCCCCC(=O)NCC(=O)N[C@@H](CCCCN)C(=O)N[C@@H](CCC(=O)O)C(=O)N[C@@H](C)C(=O)N1CCC[C@H]1C(=O)N1CCC[C@H]1C(=O)N[C@@H](C)C(=O)N1CCC[C@H]1C(=O)N1CCC[C@H]1C(=O)N[C@@H](CCC(N)=O)C(=O)N[C@@H](COP(=O)(O)O)C(=O)N1CCC[C@H]1C(N)=O` (Myristoyl-GKEAPPAPPQ[pS]P-NH2), the IC50 in [6] came to 40 µM.
Turning to `CCCCCCCCCCCC(=O)NNC(=O)C1Sc2ccccc2N(CC)C1=O` (stereo not drawn), the IC50 in assay [6] came out at 8 µM. The inhibition result in assay [7] is “Active”. Further, the outcome in [8] and in [9] was Active.
Compound `CN(C)C/C=C/C(=O)Nc1cc2c(Nc3ccc(F)c(Cl)c3)ncnc2cc1O[C@H]1CCOC1` came in with an inhibition in assay [10] of 88.1%.
Regarding `Cn1cc(C2=C(c3ccc(Cl)cc3Cl)C(=O)NC2=O)c2ccccc21`, the result in assay [11] and in assay [12] was Active. In addition, in assay [13], the inhibition result is “Active”.
As to `CCCCCCCCCCCC(=O)NNC(=O)C1Sc2ccccc2N(Cc2ccccc2)C1=O` (stereo not drawn), the IC50 in [6] amounted to 10 µM. The inhibition result in assay [14] and in [7] was “Active” each time. Besides, the inhibition in [15] worked out at 36%; in [16], 0%; in [17] it was 13%; in assay [18], 12.4%; in [19], 29.3%; in assay [4], 0%. For the same compound, the results for the inhibition in assay [5], in assay [10] and in assay [20] were 0%, 0% and 12.2%, respectively. For the same compound, the result in assay [8] and in [9] was Active.
